Consider three compounds from patent EP2605769B1, “BENZOQUINONE DERIVATIVES FOR THE TREATMENT OF MITCHONDRIAL EYE DISEASES” (Santhera Pharmaceuticals (Schweiz) AG, priority 2010, dated 2012).

For data set [1], the system named is Immortalized lymphoblastoid cells (BC1 LCL). Put plainly: ATP assay (ATP dependent luciferase reaction, low glucose). It is filed as cell-based. As to conditions: 10 µM, 72 h. From the text: Electrons donated from the citric acid cycle in form of NADH are transferred between complexes I, II and III of the respiratory chain. In this process mitochondrial membrane potential is generated through proton pumps in the mitochondrial inner membrane. This electrochemical gradient across the inner mitochondrial membrane is used in healthy cells to provide the energy to drive mitochondrial ATP production. Consequently, cellular ATP levels are a good indicator of mitochondrial function. […] A potential inhibition of mitochondrial respiration can be detected through special growth conditions in vitro. […]
Experimental Procedure: This assay was therefore performed in the absence of glucose in the medium. […] The number of cells was counted and after brief washing in PBS and collecting through centrifugation (5 min; 200 x g) the cells were lysed in a volume of 0.5 ml lysis solution (4 mM EDTA, 0.2% Triton X-100) for 15 min.on ice and 10 µl of lysate was added into a white 96 well plate. […] The reaction was started by addition of 100 µl reaction mix (300 µM D-Luciferin, 5 µg/ml firefly luciferase, 75 µM DTT, 25 mM HEPES, 6.25 mM MgCl2, 625 µM EDTA and 1 mg/ml BSA) and the luminescence signal was quantified in a multimode plate reader (Tecan M1000 plate reader; luminescence integration time: 100 ms). […]

Data set [2] relates to HepG2 hepatoblastoma cell line. Put plainly: Cytotoxicity assay (WST-1). It is filed as cell-based, human. As to conditions: Hep-G2 cells, 24 hours exposure. An excerpt: This assay investigates cytotoxicity which is defined as the cell-killing property of a chemical compound, independent from the mechanisms of cell death. The HepG2 hepatoblastoma cell line is one of the most common human cell lines for hepatotoxicity studies. […] This assay measures metabolic activity of living cells using the WST-1 cell proliferation reagent (Roche Diagnostics). The tetrazolium salt WST-1 is cleaved to water soluble formazan by cellular enzymes. An expansion in the number of viable cells results in an increase in the overall activity of mitochondrial dehydrogenases in the sample. This augmentation in enzyme activity leads to an increase in the amount of formazan dye formed, which directly correlates to the number of metabolically active cells in the culture. The formazan dye produced by metabolically active cells is directly quantified in a scanning multiwell spectrophotometer by measuring the absorbance of the formazan dye solution between 420 and 480 nm. Healthy HepG2 cells, when maintained in culture, continuously divide and multiply over time. A toxic chemical, regardless of site and mechanism of action, will interfere with this process and result in the reduction of the growth rate reflected in the cell number.
Experimental Procedure: Hep-G2 cells are seeded into a 96-well microplate and maintained in culture for 24 hours. They are then exposed to the test compound over a range of eight concentrations. After 24 hours exposure, the cells are incubated in presence of reagent WST-1 for 30 min before measuring the absorbance of the formazan dye formed. Cytotoxicity is expressed as a concentration dependent reduction of the conversion formazan dye formation due to a decrease in cell proliferation as compared to untreated cells. The TC50 (Toxic Concentration 50%), is defined as the concentration of tested compound required to reduce the cellular viability by 50% relative to the control culture. The lower the TC50 value, the higher is the cytotoxic potential of the test compound. […]
In general terms: Formazan colour is commonly taken as a measure of viable cells.

As for `COC1=C(OC)C(=O)C(CCCCCCCCCC(C)(C)O)=C(C)C1=O` [Compound IC], the ATP levels in data set [1] was 63%.

As for `COC1=C(OC)C(=O)C(CCCCCCCCCCO)=C(C)C1=O` [Compound IA, Idebenone], the TC50 in data set [2] is recorded as 100 µM.

As for `CCCCCCCCCCCC1=C(O)C(=O)C=C(O)C1=O` [Compound IE, Embelin], in data set [1], the ATP levels is 95%. The compound further came in with a TC50 in data set [2] of 100 µM.
